Results reported in patent US12268669B2, “Pharmaceutical compositions and methods comprising a combination of a benzoxazole transthyretin stabilizer and an additional therapeutic agent” (Pfizer Inc., priority 2018, dated 2025).

How the values were obtained:
[1] = tested on: amyloidogenic light chains; conditions: cited from earlier work
[2] = tested on: TTR tetramers (WT or V122I); experiment: WT and V122I TTR fibril formation inhibition assay (turbidity at 350 nm, acidic conditions, 72 h); assay type: biochemical; conditions: WT or V122I TTR 3.6 μM; compound 3.6 and 7.2 μM; pH 4.4 or 4.5; 72 h (values only in FIG. 1 and 2)
Experimental: Inhibition of WT and V122I TTR fibril formation under acidic conditions after 72 h-a sufficient period for aggregation to go to completion in the vehicle control (See Hurshman, A. R., White, J. T., Powers, E. T., Kelly, J. W.; Transthyretin aggregation under partially denaturing conditions is a downhill polymerization. Biochemistry 2004, 43, 7365-7381). Purified TTR tetramers (WT or V122I at 3.6 μM) were mixed with DMSO (vehicle control), Fx-1005 (positive control, See Razavi H, et al. Benzoxazoles as transthyretin amyloid fibril inhibitors: synthesis, evaluation, and mechanism of action. Angew Chem Int Ed Engl 2003, 42, 2758-2761), Fx-1003 (positive control) or PTC124 at final concentrations of 3.6 and 7.2 μM, and incubated for 30 minutes at 25° C. After adjusting the pH to 4.4 or 4.5, samples were incubated at 37° C. for 72 h. The turbidity was then measured at 350 nm using a UV-vis spectrometer. All endpoint amyloid fibril formation yields (which are slightly different for WT and V122I) were normalized for each allele to amyloidogenesis in the absence of stabilizer, assigned to be 100% fibril formation. Therefore, 5% fibril formation corresponds to a compound inhibiting 95% of TTR fibril formation after 72 h (See Miroy, G. J., et al. Inhibiting transthyretin amyloid fibril formation via protein stabilization. Proc Natl Acad Sci USA 1996, 93, 15051-15056). […]

Structure (SMILES) | prevention of fibril formation ([1]; amyloidogenic light chains) | binding to amyloidogenic light chains [1] | inhibition of TTR fibril formation [2]
O=C(O[C@@H]1Cc2c(O)cc(O)cc2O[C@@H]1c1cc(O)c(O)c(O)c1)c1cc(O)c(O)c(O)c1 | prevent fibril formation | bind to amyloidogenic light chains | –
O=C(O)c1cccc(-c2noc(-c3ccccc3F)n2)c1 [Ataluren, 3-[5-(2-fluorophenyl)-1,2,4-oxadiazol-3-yl]benzoic acid] | – | – | inhibit TTR fibril formation
